# Where a name gives a salt, the structure may show the parent alone.
# Assays:
# [1] = test system: SH-SY5Y cells; test: 1H NMR metabolic profiling of cell aqueous extracts; format: cell-based, human
# Description: (§1) Afterward, the medium was collected and the dishes washed with cold PBS, immediately before the solvent extraction procedure described below. Unexposed cells were used as controls. Each assay comprised duplicates of each condition and three independent assays were performed, giving a total of 6 replicates per condition.
# (§2) The culture medium was collected from each plate (including cell-free medium incubated under the same conditions) in conical tubes and centrifuged at 1000× g for 10 min. Furthermore, 300 µL of the supernatant were collected for protein precipitation, as described by Kostidis et al.. Briefly, 600 µL of 100% methanol (v/v) at −80 °C were added to the collected supernatant ([…]). […] The supernatant was transferred to another tube and vacuum dried (SpeedVac, Eppendorf, Hamburg, Germany). For extracting cellular metabolites, a biphasic extraction protocol (methanol:chloroform:water; 1:1:0.7) was used as previously described. The resulting polar extracts were dried under vacuum in a Speedvac concentrator, and the lipophilic extracts were dried under a nitrogen flow. All extracts were stored at −80 °C prior to NMR analysis.
# (§3) For NMR analysis, dried aqueous and lipid extracts were dissolved, respectively, in 600 μL of deuterated phosphate buffer (PBS 100 mM, pH 7.4) containing 0.1 mM 3-(trimethylsilyl) propionic acid (TSP-d4), and 600 μL of deuterated chloroform containing 0.03% tetramethylsilane (TMS). […] Two-dimensional NMR spectra, namely, ^1H-^1H TOCSY, J-resolved and ^1H-^13C HSQC spectra, were also recorded for selected samples to aid metabolite identification. Signal assignment was based on matching 1D and 2D spectral information to reference spectra available in Chenomx 9.0 (Edmonton, AB, Canada), BBIOREFCODE-2–0–0 (Bruker Biospin, Rheinstetten, Germany) and HMDB.
# Principal Component Analysis (PCA) and Partial Least Squares-Discriminant Analysis (PLS-DA) were applied and the results were visualized through factorial co-ordinates (‘scores’) and factorial contributions (‘loadings’) colored according to variable importance to the projection (VIP). For PLS-DA models, Q^2 and R^2 values, respectively reflecting predictive capability and explained variance, obtained from sevenfold internal cross validation, were used to assess the robustness of group discrimination.
# (§4) To provide a quantitative measurement of metabolic variations, spectral integration and total area normalization of selected signals (vide Supplementary Table S1) were carried out in Amix-Viewer 3.9.15 (Bruker Biospin, Rheinstetten, Germany). For each metabolite, the percentage of variation (or fold change) in exposed samples was calculated relative to respective controls, along with the effect size (ES) and statistical significance (p-value). The variations with larger magnitude (|ES| > 0.8) were expressed in a heatmap.
# [2] = test system: SH-SY5Y cells; test: 1H NMR metabolic profiling of culture medium (consumption/excretion); format: cell-based, human; conditions: vs control
# Description: as §1, §2, §3, §4
smiles,measurement,setting,value
"CCN(CC)CC(=O)Nc1c(C)cccc1C [LDC, lidocaine hydrochloride]","2-Ketovaline, variation in relation to control","[1]; IC10, 24 h, aqueous extract",0.0%
same,"2-Oxoisoleucine, variation in relation to control","[1]; IC10, 24 h, aqueous extract",0.0%
same,"ATP + ADP, variation in relation to control","[1]; IC10, 24 h, aqueous extract",-10.4%
same,"Alanine, variation in relation to control","[1]; IC10, 24 h, aqueous extract",0.0%
same,"Asparagine, variation in relation to control","[1]; IC10, 24 h, aqueous extract",-18.9%
same,"Aspartate, variation in relation to control","[1]; IC10, 24 h, aqueous extract",-12.9%
same,"Creatine, variation in relation to control","[1]; IC10, 24 h, aqueous extract",24.9%
same,"Cystathionine, variation in relation to control","[1]; IC10, 24 h, aqueous extract",12.1%
same,"Formate, variation in relation to control","[1]; IC10, 24 h, aqueous extract",17.0%
same,"Glutamate, variation in relation to control","[1]; IC10, 24 h, aqueous extract",-16.3%
same,"Glutamine, variation in relation to control","[1]; IC10, 24 h, aqueous extract",-22.0%
same,"Glycerophosphocholine, variation in relation to control","[1]; IC10, 24 h, aqueous extract",-11.7%
same,"Glycine, variation in relation to control","[1]; IC10, 24 h, aqueous extract",16.6%
same,"Histidine, variation in relation to control","[1]; IC10, 24 h, aqueous extract",11.8%
same,"Isobutyrate, variation in relation to control","[1]; IC10, 24 h, aqueous extract",-14.4%
same,"Isoleucine, variation in relation to control","[1]; IC10, 24 h, aqueous extract",18.2%
same,"Lactate, variation in relation to control","[1]; IC10, 24 h, aqueous extract",0.0%
same,"Leucine, variation in relation to control","[1]; IC10, 24 h, aqueous extract",33.4%
same,"NAD+, variation in relation to control","[1]; IC10, 24 h, aqueous extract",0.0%
same,"Panthothenic, variation in relation to control","[1]; IC10, 24 h, aqueous extract",11.9%
same,"Phenylalanine, variation in relation to control","[1]; IC10, 24 h, aqueous extract",22.7%
same,"Phosphocholine, variation in relation to control","[1]; IC10, 24 h, aqueous extract",14.1%
same,"Phosphocreatine, variation in relation to control","[1]; IC10, 24 h, aqueous extract",-16.1%
same,"Proline, variation in relation to control","[1]; IC10, 24 h, aqueous extract",-15.8%
same,"UDP-GlcNAc, variation in relation to control","[1]; IC10, 24 h, aqueous extract",-10.8%
same,"Valine, variation in relation to control","[1]; IC10, 24 h, aqueous extract",15.5%
same,"beta-Alanine, variation in relation to control","[1]; IC10, 24 h, aqueous extract",-10.0%
same,"myo-Inositol, variation in relation to control","[1]; IC10, 24 h, aqueous extract",-16.9%
same,"2-Ketovaline, variation in relation to control","[1]; IC50, 24 h, aqueous extract",16.5%
same,"2-Oxoisoleucine, variation in relation to control","[1]; IC50, 24 h, aqueous extract",21.6%
same,"ATP + ADP, variation in relation to control","[1]; IC50, 24 h, aqueous extract",-23.0%
same,"Alanine, variation in relation to control","[1]; IC50, 24 h, aqueous extract",17.1%
same,"Asparagine, variation in relation to control","[1]; IC50, 24 h, aqueous extract",27.8%
same,"Aspartate, variation in relation to control","[1]; IC50, 24 h, aqueous extract",12.1%
same,"Creatine, variation in relation to control","[1]; IC50, 24 h, aqueous extract",17.6%
same,"Cystathionine, variation in relation to control","[1]; IC50, 24 h, aqueous extract",-28.3%
same,"Formate, variation in relation to control","[1]; IC50, 24 h, aqueous extract",58.8%
same,"Glutamate, variation in relation to control","[1]; IC50, 24 h, aqueous extract",0.0%
same,"Glutamine, variation in relation to control","[1]; IC50, 24 h, aqueous extract",43.0%
same,"Glycerophosphocholine, variation in relation to control","[1]; IC50, 24 h, aqueous extract",-33.4%
same,"Glycine, variation in relation to control","[1]; IC50, 24 h, aqueous extract",48.8%
same,"Histidine, variation in relation to control","[1]; IC50, 24 h, aqueous extract",22.5%
same,"Isoleucine, variation in relation to control","[1]; IC50, 24 h, aqueous extract",33.4%
same,"Lactate, variation in relation to control","[1]; IC50, 24 h, aqueous extract",-12.4%
same,"Leucine, variation in relation to control","[1]; IC50, 24 h, aqueous extract",54.2%
same,"NAD+, variation in relation to control","[1]; IC50, 24 h, aqueous extract",16.7%
same,"Panthothenic, variation in relation to control","[1]; IC50, 24 h, aqueous extract",14.7%
same,"Phenylalanine, variation in relation to control","[1]; IC50, 24 h, aqueous extract",36.2%
same,"Phosphocholine, variation in relation to control","[1]; IC50, 24 h, aqueous extract",23.7%
same,"Phosphocreatine, variation in relation to control","[1]; IC50, 24 h, aqueous extract",-42.3%
same,"Proline, variation in relation to control","[1]; IC50, 24 h, aqueous extract",-38.0%
same,"UDP-GlcNAc, variation in relation to control","[1]; IC50, 24 h, aqueous extract",-38.7%
same,"Valine, variation in relation to control","[1]; IC50, 24 h, aqueous extract",33.9%
same,"beta-Alanine, variation in relation to control","[1]; IC50, 24 h, aqueous extract",-72.1%
same,"myo-Inositol, variation in relation to control","[1]; IC50, 24 h, aqueous extract",-50.6%
same,intracellular glutamate level (in words),"[1]; IC50, 24 h, vs control",not altered
same,intracellular phosphocholine level (in words),"[1]; IC50, 24 h, vs control",increased
same,pyruvate consumption,"[2]; IC10, 24 h",increased significantly
same,pyruvate consumption,"[2]; IC50, 24 h",no difference to controls
